US20210260145A1, “PHARMACEUTICAL COMPOSITION FOR ALLEVIATING EYE FATIGUE, CONTAINING, AS ACTIVE INGREDIENTS, LUTEOLIN-7-O-DIGLUCURONIDE AND APIGENIN-7-O-DIGLUCURONIDE ISOLATED FROM PERILLA FRUTESCENS (L.) BRITTON VAR. ACUTA (THUNB.) KUDO LEAF EXTRACT” (JEONNAM BIOINDUSTRY FOUNDATION, priority 2018, published 2021)

Test system: Ciliary muscle cells (rCSMCs) isolated from rat's eyes
Assay: cGMP content in rat ciliary muscle cells, isolated compounds (ELISA)
Type: cell-based
Settings: compounds 0.01, 0.05, 0.1, 1 μg/mL, 15 minutes
Description: Ciliary muscle cells ([…]) isolated from rat's eyes were dispensed into 6 wells at 5×10^5 cells/well and stabilized for one day. After stabilization, 3-isobuytyl-1-methylxanthine (1 mM) was pre-treated for 10 minutes, and then luteolin-7-O-diglucuronide and apigenin-7-O-diglucuronide compounds isolated from the Perilla frutescens (L.) Britton var. acuta (Thunb.) Kudo leaf extract were reacted for 15 minutes at concentrations of 0.01, 0.05, 0.1, and 1 μg/mL. The cGMP contents of these compounds were measured using an ELISA kit.

Compound | cGMP content
luteolin-7-O-diglucuronide | increasing the cGMP content
O=C(O)[C@H]1O[C@@H](O[C@H]2[C@H](Oc3cc(O)c4c(=O)cc(-c5ccc(O)cc5)oc4c3)O[C@H](C(=O)O)[C@@H](O)[C@@H]2O)[C@H](O)[C@@H](O)[C@@H]1O [apigenin-7-O-diglucuronide] | increasing the cGMP content
